This is an account of results in patent publication US20230010803A1, “TREATMENTS FOR DIFFUSE LARGE B-CELL LYMPHOMA” (Janssen Pharmaceutica NV, priority 2021, published 2023).

In data set [1] the test system is non-GCB DLBCL. The conditions noted are these: cited from earlier work.
Data set [2] deals with non-GCB DLBCL. Description: Phoenix phase III randomized trial of R-CHOP with or without ibrutinib, analysed by LymphGen genetic subtype. The format is in vivo, human. The settings on record: younger patients (age≤60) with N1 DLBCL (n=13).

The structures appear in SMILES notation.

On to `C=CC(=O)N1CCC[C@@H](n2nc(-c3ccc(Oc4ccccc4)cc3)c3c(N)ncnc32)C1` [ibrutinib], for which the “toxicity compared to the placebo arm” value in the data set with non-GCB DLBCL [1] (older patients on the ibrutinib arm) was “significantly more toxicity”. In addition, in the data set on non-GCB DLBCL [1] (younger patients with non-GCB DLBCL), the “toxicity of addition of ibrutinib to R-CHOP” value is listed as “did not significantly increase toxicity”. In the data set with non-GCB DLBCL [2], the “3-year EFS” value is recorded as 100% and the “3-year OS” value was determined as 100%.
